Assay results reported in publication PMC4176091, “Novel expression of Haemonchus contortus vaccine candidate aminopeptidase H11 using the free-living nematode Caenorhabditis elegans” (Veterinary Research, 2013).

Assays:
Experiment in all cases: aminopeptidase assay, absorbance at […] nm
Type in all cases: biochemical
Settings in all cases: 0.5 mM substrate; 50 mM NaPO4, pH 5.5 and 7; 2 h at 37 °C then overnight at room temperature
[1] = target: T1, H11 (rH11, isoform H11) (Haemonchus contortus, UniProt Q10737)
T1 construct: soluble, expressed in C. elegans; N-terminal transmembrane domain (35 aa) replaced by Hmcp-6 signal peptide; C-terminal 10 aa His tag; cobalt resin
T1 sequence (Q10737 36-972): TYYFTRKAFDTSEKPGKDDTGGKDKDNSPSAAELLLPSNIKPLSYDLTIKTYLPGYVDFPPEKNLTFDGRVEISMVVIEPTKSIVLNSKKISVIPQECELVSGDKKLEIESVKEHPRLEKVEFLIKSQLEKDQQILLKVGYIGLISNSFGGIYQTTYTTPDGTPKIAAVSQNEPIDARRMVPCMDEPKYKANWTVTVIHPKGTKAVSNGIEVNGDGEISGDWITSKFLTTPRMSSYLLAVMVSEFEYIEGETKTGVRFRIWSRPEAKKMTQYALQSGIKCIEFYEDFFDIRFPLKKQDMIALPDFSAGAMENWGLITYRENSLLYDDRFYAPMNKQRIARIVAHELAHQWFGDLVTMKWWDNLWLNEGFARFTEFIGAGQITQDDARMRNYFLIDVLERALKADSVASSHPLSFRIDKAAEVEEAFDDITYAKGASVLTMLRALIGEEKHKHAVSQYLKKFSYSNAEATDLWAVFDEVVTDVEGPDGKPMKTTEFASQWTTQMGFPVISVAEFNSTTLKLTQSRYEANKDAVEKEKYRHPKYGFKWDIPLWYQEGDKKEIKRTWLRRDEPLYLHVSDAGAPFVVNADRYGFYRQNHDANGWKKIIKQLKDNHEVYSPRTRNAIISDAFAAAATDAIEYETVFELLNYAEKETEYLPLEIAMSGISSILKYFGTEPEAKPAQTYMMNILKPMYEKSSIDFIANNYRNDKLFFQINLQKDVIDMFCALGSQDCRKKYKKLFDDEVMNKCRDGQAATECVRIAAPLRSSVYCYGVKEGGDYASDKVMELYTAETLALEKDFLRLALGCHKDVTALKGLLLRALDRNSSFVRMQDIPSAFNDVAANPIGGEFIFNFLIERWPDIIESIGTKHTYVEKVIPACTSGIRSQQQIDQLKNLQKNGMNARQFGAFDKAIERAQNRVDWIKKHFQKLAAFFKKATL

[2] = target: T2, rH11-1 (Haemonchus contortus, UniProt Q9U5P6)
T2 construct: gene h11-1; soluble, expressed in C. elegans; N-terminal transmembrane domain (35 aa) replaced by Hmcp-6 signal peptide; C-terminal 10 aa His tag; cobalt resin
T2 sequence (Q9U5P6 entry or part of it): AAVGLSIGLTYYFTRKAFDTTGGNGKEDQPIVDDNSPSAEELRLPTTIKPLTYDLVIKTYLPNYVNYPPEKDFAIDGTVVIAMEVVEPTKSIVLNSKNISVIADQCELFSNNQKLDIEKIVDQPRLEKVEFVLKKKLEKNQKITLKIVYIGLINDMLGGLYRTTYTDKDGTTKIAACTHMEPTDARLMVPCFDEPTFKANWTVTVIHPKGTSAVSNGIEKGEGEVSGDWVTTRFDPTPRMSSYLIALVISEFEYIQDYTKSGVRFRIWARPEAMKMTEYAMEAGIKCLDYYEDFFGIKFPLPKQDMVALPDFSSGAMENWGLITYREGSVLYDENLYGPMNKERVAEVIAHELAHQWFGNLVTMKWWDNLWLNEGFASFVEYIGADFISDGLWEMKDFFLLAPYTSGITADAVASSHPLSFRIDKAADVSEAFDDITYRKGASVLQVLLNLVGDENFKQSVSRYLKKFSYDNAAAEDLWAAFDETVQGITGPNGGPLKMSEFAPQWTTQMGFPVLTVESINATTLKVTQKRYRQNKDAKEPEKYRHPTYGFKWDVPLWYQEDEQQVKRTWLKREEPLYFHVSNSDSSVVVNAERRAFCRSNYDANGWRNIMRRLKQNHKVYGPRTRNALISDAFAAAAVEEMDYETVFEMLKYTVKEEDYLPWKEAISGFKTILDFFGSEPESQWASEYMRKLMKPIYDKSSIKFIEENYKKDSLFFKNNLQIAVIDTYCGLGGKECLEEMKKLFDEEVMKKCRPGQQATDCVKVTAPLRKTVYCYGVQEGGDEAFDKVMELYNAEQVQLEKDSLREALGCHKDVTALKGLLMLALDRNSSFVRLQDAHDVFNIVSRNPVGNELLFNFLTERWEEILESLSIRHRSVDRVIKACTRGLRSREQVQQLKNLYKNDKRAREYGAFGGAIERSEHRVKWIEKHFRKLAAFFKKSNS

[3] = target: T3, rH11-5 (Haemonchus contortus, UniProt V5K5H8)
T3 construct: soluble, expressed in C. elegans; N-terminal transmembrane domain (35 aa) replaced by Hmcp-6 signal peptide; C-terminal 10 aa His tag; cobalt resin
T3 sequence (V5K5H8 entry or part of it): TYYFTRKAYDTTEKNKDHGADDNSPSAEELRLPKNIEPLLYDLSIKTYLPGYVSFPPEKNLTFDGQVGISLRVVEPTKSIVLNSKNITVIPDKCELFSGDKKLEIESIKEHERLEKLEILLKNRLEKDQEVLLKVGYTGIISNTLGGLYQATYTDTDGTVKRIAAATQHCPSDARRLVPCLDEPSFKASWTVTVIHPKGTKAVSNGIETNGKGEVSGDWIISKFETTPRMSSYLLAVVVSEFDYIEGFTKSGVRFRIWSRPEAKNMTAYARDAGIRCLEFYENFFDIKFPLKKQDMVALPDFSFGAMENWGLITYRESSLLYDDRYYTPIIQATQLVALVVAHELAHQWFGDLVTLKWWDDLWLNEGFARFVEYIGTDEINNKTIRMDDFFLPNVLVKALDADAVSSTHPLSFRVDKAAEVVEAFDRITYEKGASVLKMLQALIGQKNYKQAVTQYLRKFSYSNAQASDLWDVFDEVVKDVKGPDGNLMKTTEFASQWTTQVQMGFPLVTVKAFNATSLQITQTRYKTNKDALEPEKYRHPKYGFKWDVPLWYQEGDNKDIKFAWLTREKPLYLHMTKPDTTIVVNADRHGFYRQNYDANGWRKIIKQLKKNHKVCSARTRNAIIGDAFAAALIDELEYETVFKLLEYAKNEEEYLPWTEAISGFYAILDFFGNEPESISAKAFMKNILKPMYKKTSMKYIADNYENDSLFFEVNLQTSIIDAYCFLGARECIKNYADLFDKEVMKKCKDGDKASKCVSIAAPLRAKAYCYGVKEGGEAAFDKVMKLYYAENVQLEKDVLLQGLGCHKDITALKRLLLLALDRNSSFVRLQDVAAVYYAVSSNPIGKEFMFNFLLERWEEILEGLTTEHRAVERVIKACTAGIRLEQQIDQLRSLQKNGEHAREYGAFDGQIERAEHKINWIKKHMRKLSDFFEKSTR

[4] = target: T4, rH11-4 (Haemonchus contortus, UniProt Q967C6)
T4 construct: gene h11-4; soluble, expressed in C. elegans; N-terminal transmembrane domain (35 aa) replaced by Hmcp-6 signal peptide; C-terminal 10 aa His tag; N-glycosylated; cobalt resin
T4 sequence (Q967C6 entry or part of it): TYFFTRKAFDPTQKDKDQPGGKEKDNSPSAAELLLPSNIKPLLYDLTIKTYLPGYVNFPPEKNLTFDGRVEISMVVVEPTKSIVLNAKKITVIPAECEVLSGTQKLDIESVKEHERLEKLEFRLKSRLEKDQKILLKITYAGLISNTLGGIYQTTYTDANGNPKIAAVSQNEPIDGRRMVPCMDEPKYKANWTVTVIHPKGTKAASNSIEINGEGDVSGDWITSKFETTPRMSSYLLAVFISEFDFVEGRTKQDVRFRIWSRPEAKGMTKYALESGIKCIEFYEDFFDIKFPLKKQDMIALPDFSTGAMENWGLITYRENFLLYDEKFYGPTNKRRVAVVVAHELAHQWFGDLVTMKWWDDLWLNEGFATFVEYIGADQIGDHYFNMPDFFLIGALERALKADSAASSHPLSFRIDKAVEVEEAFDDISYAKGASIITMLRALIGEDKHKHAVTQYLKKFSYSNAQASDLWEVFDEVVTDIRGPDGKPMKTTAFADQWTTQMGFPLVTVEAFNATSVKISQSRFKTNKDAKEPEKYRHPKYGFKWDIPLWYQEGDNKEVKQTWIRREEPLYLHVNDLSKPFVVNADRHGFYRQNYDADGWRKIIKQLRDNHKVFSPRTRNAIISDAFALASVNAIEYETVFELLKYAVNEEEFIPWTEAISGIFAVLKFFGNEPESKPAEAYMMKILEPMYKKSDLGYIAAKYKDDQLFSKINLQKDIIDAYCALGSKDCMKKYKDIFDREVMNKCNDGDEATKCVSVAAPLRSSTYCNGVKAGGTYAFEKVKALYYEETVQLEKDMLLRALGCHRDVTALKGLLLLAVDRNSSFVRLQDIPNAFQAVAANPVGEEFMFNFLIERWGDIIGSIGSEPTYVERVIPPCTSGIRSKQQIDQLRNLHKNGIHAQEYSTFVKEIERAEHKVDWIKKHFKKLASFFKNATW

SMILES: CC(C)C[C@H](N)C(=O)Nc1ccc([N+](=O)[O-])cc1 [L-leucine p-nitroanilide]
- aminopeptidase assay, absorbance at 405 nm [1]: rH11-4 and rH11-5 showing greater activity than H11 and H11-1 isoforms
- aminopeptidase assay, absorbance at 405 nm [2]: rH11-4 and rH11-5 showing greater activity than H11 and H11-1 isoforms
- aminopeptidase assay, absorbance at 405 nm [3]: rH11-4 and rH11-5 showing greater activity than H11 and H11-1 isoforms
- aminopeptidase assay, absorbance at 405 nm [4]: rH11-4 and rH11-5 showing greater activity than H11 and H11-1 isoforms
